Tests used:
Conditions in all cases: 48 h
NOMO1 [1] = assay: cell viability relative to DMSO control; higher = less cytotoxic
How it was run: (§1)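 Library compounds in DMSO were pin-dosed into 1536-well plates (5 μl) holding NOMO1 or SEM (500 cells/well) or P12-Ichikawa (1000 cells/well) leukemia cells, across an 11-point threefold series of 47 μM to 0.79 nM. Each cell line had been adapted for at least four passages in each medium. CellTiter-Glo One luminescence was read after 48 h at 37°C. Viability is the per-plate percentage relative to DMSO wells, with cell-free wells as background.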

P12-Ichikawa [2] = assay: as above
How it was run: as §1

SEM cells [3] = assay: as above
How it was run: as §1

NOMO1 [4] = assay: AUC of viability dose-response curve (% viability x log10 dose units); higher = less sensitive
How it was run: (§2)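 Viability of medium-adapted leukemia cells was measured by CellTiter-Glo One luminescence after 48 h at 37°C with library compounds in DMSO. Doses were 11 threefold steps from 47 μM to 0.79 nM, in 1536-well plates at 500 or 1000 cells/well. Signals were normalised per plate to DMSO and cell-free wells and fitted with a four-parameter log-logistic model on log10 dose. Area under the curve was integrated by trapezoidal rule, with curves exceeding full viability scaled and failed quality-control curves removed.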

P12-Ichikawa [5] = assay: as above
How it was run: as §2

SEM cells [6] = assay: as above
How it was run: as §2

C[C@@H]1[C@H](O)[C@@H](C)/C=C/C=C/C=C/C=C/C=C/C=C/C=C/[C@H](O[C@@H]2O[C@H](C)[C@@H](O)[C@H](N)[C@@H]2O)C[C@@H]2O[C@](O)(C[C@@H](O)C[C@@H](O)[C@H](O)CC[C@@H](O)C[C@@H](O)CC(=O)O[C@H]1C)C[C@H](O)[C@H]2C(=O)O
cell viability [%]
Conditions	NOMO1 [1]	P12-Ichikawa [2]	SEM cells [3]
HPLM + 10% dialyzed FBS, 0.000781 µM	113	105	105
HPLM + 10% dialyzed FBS, 0.00234 µM	121	118	92.1
HPLM + 10% dialyzed FBS, 0.00702 µM	126	117	105
HPLM + 10% dialyzed FBS, 0.0211 µM	117	124	110
HPLM + 10% dialyzed FBS, 0.0632 µM	114	121	110
HPLM + 10% dialyzed FBS, 0.19 µM	116	126	110
HPLM + 10% dialyzed FBS, 0.569 µM	124	121	103
HPLM + 10% dialyzed FBS, 1.71 µM	123	129	114
HPLM + 10% dialyzed FBS, 5.12 µM	152	119	102
HPLM + 10% dialyzed FBS, 15.4 µM	138	127	105
HPLM + 10% dialyzed FBS, 46.1 µM	133	118	125
RPMI 5 mM glucose + 10% FBS, 0.000781 µM	108	119	113
RPMI 5 mM glucose + 10% FBS, 0.00234 µM	124	112	115
RPMI 5 mM glucose + 10% FBS, 0.00702 µM	112	118	110
RPMI 5 mM glucose + 10% FBS, 0.0211 µM	114	110	107
RPMI 5 mM glucose + 10% FBS, 0.0632 µM	111	119	105
RPMI 5 mM glucose + 10% FBS, 0.19 µM	115	123	112
RPMI 5 mM glucose + 10% FBS, 0.569 µM	133	134	112
RPMI 5 mM glucose + 10% FBS, 1.71 µM	119	127	108
RPMI 5 mM glucose + 10% FBS, 5.12 µM	125	122	104
RPMI 5 mM glucose + 10% FBS, 15.4 µM	118	125	121
RPMI 5 mM glucose + 10% FBS, 46.1 µM	135	123	118
RPMI 5 mM glucose + 10% dialyzed FBS, 0.000781 µM	–	98.6	110
RPMI 5 mM glucose + 10% dialyzed FBS, 0.00234 µM	–	113	103
RPMI 5 mM glucose + 10% dialyzed FBS, 0.00702 µM	–	119	108
RPMI 5 mM glucose + 10% dialyzed FBS, 0.0211 µM	–	110	93.8
RPMI 5 mM glucose + 10% dialyzed FBS, 0.0632 µM	–	130	114
RPMI 5 mM glucose + 10% dialyzed FBS, 0.19 µM	–	116	116
RPMI 5 mM glucose + 10% dialyzed FBS, 0.569 µM	–	123	105
RPMI 5 mM glucose + 10% dialyzed FBS, 1.71 µM	–	124	108
RPMI 5 mM glucose + 10% dialyzed FBS, 5.12 µM	–	124	109
RPMI 5 mM glucose + 10% dialyzed FBS, 15.4 µM	–	115	91.2
RPMI 5 mM glucose + 10% dialyzed FBS, 46.1 µM	–	124	127

AUC of viability dose-response curve
Conditions	NOMO1 [4]	P12-Ichikawa [5]	SEM cells [6]
HPLM + 10% dialyzed FBS	422	468	450
RPMI 5 mM glucose + 10% FBS	452	458	443
RPMI 5 mM glucose + 10% dialyzed FBS	461	465	465

CC/1=C(/N2[C@H](SC1)[C@H](NC(=O)[C@H](N)\C3=C\C\C=C/C3)C2=O)C(O)=O
cell viability [%]
Conditions	NOMO1 [1]	P12-Ichikawa [2]	SEM cells [3]
HPLM + 10% dialyzed FBS, 0.000781 µM	97.5	96.8	79.3
HPLM + 10% dialyzed FBS, 0.00234 µM	110	117	87.2
HPLM + 10% dialyzed FBS, 0.00702 µM	103	116	94
HPLM + 10% dialyzed FBS, 0.0211 µM	109	121	86.5
HPLM + 10% dialyzed FBS, 0.0632 µM	108	126	82.9
HPLM + 10% dialyzed FBS, 0.19 µM	121	115	97.1
HPLM + 10% dialyzed FBS, 0.569 µM	123	111	95.8
HPLM + 10% dialyzed FBS, 1.71 µM	135	126	91.2
HPLM + 10% dialyzed FBS, 5.12 µM	121	128	93.5
HPLM + 10% dialyzed FBS, 15.4 µM	115	120	111
HPLM + 10% dialyzed FBS, 46.1 µM	121	113	102
RPMI 5 mM glucose + 10% FBS, 0.000781 µM	110	99.5	95.8
RPMI 5 mM glucose + 10% FBS, 0.00234 µM	119	91.8	106
RPMI 5 mM glucose + 10% FBS, 0.00702 µM	114	110	120
RPMI 5 mM glucose + 10% FBS, 0.0211 µM	118	116	98.1
RPMI 5 mM glucose + 10% FBS, 0.0632 µM	119	103	115
RPMI 5 mM glucose + 10% FBS, 0.19 µM	124	120	120
RPMI 5 mM glucose + 10% FBS, 0.569 µM	109	117	111
RPMI 5 mM glucose + 10% FBS, 1.71 µM	117	119	118
RPMI 5 mM glucose + 10% FBS, 5.12 µM	129	120	107
RPMI 5 mM glucose + 10% FBS, 15.4 µM	125	124	113
RPMI 5 mM glucose + 10% FBS, 46.1 µM	127	122	120
RPMI 5 mM glucose + 10% dialyzed FBS, 0.000781 µM	102	111	88.8
RPMI 5 mM glucose + 10% dialyzed FBS, 0.00234 µM	109	112	112
RPMI 5 mM glucose + 10% dialyzed FBS, 0.00702 µM	104	116	98
RPMI 5 mM glucose + 10% dialyzed FBS, 0.0211 µM	124	112	87.4
RPMI 5 mM glucose + 10% dialyzed FBS, 0.0632 µM	115	118	109
RPMI 5 mM glucose + 10% dialyzed FBS, 0.19 µM	108	118	117
RPMI 5 mM glucose + 10% dialyzed FBS, 0.569 µM	114	118	114
RPMI 5 mM glucose + 10% dialyzed FBS, 1.71 µM	121	117	107
RPMI 5 mM glucose + 10% dialyzed FBS, 5.12 µM	126	125	124
RPMI 5 mM glucose + 10% dialyzed FBS, 15.4 µM	109	133	114
RPMI 5 mM glucose + 10% dialyzed FBS, 46.1 µM	118	125	113

AUC of viability dose-response curve
Conditions	NOMO1 [4]	P12-Ichikawa [5]	SEM cells [6]
HPLM + 10% dialyzed FBS	446	471	429
RPMI 5 mM glucose + 10% FBS	454	441	470
RPMI 5 mM glucose + 10% dialyzed FBS	461	440	448

Cn1cnc2c1c(=O)[nH]c(=O)n2C
cell viability [%]
Conditions	NOMO1 [1]	P12-Ichikawa [2]	SEM cells [3]
HPLM + 10% dialyzed FBS, 0.000781 µM	112	105	97.5
HPLM + 10% dialyzed FBS, 0.00234 µM	102	107	110
HPLM + 10% dialyzed FBS, 0.00702 µM	102	100	103
HPLM + 10% dialyzed FBS, 0.0211 µM	119	104	106
HPLM + 10% dialyzed FBS, 0.0632 µM	108	110	116
HPLM + 10% dialyzed FBS, 0.19 µM	110	105	115
HPLM + 10% dialyzed FBS, 0.569 µM	116	112	112
HPLM + 10% dialyzed FBS, 1.71 µM	96.4	108	107
HPLM + 10% dialyzed FBS, 5.12 µM	105	97.1	94.1
HPLM + 10% dialyzed FBS, 15.4 µM	78.3	98	91
HPLM + 10% dialyzed FBS, 46.1 µM	5.56	9.4	5.76
RPMI 5 mM glucose + 10% FBS, 0.000781 µM	99.2	104	92.7
RPMI 5 mM glucose + 10% FBS, 0.00234 µM	110	104	85.2
RPMI 5 mM glucose + 10% FBS, 0.00702 µM	96.2	93.9	106
RPMI 5 mM glucose + 10% FBS, 0.0211 µM	92.6	97.6	101
RPMI 5 mM glucose + 10% FBS, 0.0632 µM	97	103	93.2
RPMI 5 mM glucose + 10% FBS, 0.19 µM	96.5	103	107
RPMI 5 mM glucose + 10% FBS, 0.569 µM	103	100	93
RPMI 5 mM glucose + 10% FBS, 1.71 µM	88.1	98.5	94.3
RPMI 5 mM glucose + 10% FBS, 5.12 µM	99.3	99	79.6
RPMI 5 mM glucose + 10% FBS, 15.4 µM	91.6	82.2	61.8
RPMI 5 mM glucose + 10% FBS, 46.1 µM	7.98	34.1	5.77
RPMI 5 mM glucose + 10% dialyzed FBS, 0.000781 µM	101	102	95.3
RPMI 5 mM glucose + 10% dialyzed FBS, 0.00234 µM	91.7	102	99
RPMI 5 mM glucose + 10% dialyzed FBS, 0.00702 µM	99	103	90.9
RPMI 5 mM glucose + 10% dialyzed FBS, 0.0211 µM	114	102	108
RPMI 5 mM glucose + 10% dialyzed FBS, 0.0632 µM	109	100	111
RPMI 5 mM glucose + 10% dialyzed FBS, 0.19 µM	104	99.8	94.3
RPMI 5 mM glucose + 10% dialyzed FBS, 0.569 µM	100	103	108
RPMI 5 mM glucose + 10% dialyzed FBS, 1.71 µM	102	97.9	105
RPMI 5 mM glucose + 10% dialyzed FBS, 5.12 µM	96	87.2	96.8
RPMI 5 mM glucose + 10% dialyzed FBS, 15.4 µM	90	80.9	79.9
RPMI 5 mM glucose + 10% dialyzed FBS, 46.1 µM	9.87	25.7	6.67

AUC of viability dose-response curve
Conditions	NOMO1 [4]	P12-Ichikawa [5]	SEM cells [6]
HPLM + 10% dialyzed FBS	440	452	447
RPMI 5 mM glucose + 10% FBS	443	452	415
RPMI 5 mM glucose + 10% dialyzed FBS	449	445	443
